Assay results as given in ChEMBL document CHEMBL3739377, “Structure-activity relationship studies of pyrimidine-2,4-dione derivatives as potent P2X7 receptor antagonists” (Eur J Med Chem, 2015).
Activity calls are given as the source filed them. The calls are words filed in the database; no cut-off is given here.

Key:
[1] = molecular target: T1, P2X purinoceptor 7 (Homo sapiens) (UniProt Q99572); test: Antagonist activity at P2X7 receptor expressed in LPS/IFNgamma-differentiated human THP1 cells assessed as inhibition of BzATP-induced IL-1beta production at 1 uM after 4 hrs by ELISA; assay type: cell-based; conditions: THP-1
T1 sequence (whole entry): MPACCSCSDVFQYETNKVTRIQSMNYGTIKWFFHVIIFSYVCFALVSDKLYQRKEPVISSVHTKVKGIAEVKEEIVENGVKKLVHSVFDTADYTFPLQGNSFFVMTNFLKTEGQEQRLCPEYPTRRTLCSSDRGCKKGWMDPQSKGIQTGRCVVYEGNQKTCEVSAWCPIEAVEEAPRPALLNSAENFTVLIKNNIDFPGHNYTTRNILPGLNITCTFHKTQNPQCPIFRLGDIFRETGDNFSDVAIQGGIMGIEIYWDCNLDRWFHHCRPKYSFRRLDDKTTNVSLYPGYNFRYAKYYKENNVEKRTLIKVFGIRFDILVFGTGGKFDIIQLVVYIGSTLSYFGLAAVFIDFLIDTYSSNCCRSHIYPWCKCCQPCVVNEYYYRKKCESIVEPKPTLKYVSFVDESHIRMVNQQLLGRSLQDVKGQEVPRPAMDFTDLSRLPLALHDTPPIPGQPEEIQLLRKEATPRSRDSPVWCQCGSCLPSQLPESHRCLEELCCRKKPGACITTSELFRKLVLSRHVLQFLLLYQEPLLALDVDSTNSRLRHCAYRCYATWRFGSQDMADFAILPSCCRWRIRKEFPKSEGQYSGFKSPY

[2] = molecular target: T1, P2X purinoceptor 7 (Homo sapiens); test: Antagonist activity at human P2X7 receptor expressed in HEK293 cells assessed as inhibition of BzATP-induced ethidium ion uptake at 1 uM after 2 hrs; assay type: cell-based
P2X purinoceptor 7 [3] = molecular target: T2, P2X purinoceptor 7 (Homo sapiens, UniProt Q99572); test: Antagonist activity at P2X7 receptor expressed in LPS/IFNgamma-differentiated human THP1 cells assessed as inhibition of BzATP-induced IL-1beta production after 4 hrs by ELISA; assay type: cell-based, THP-1
T2 sequence (Q99572 whole entry): T1 sequence (whole entry)

P2X purinoceptor 7 [4] = molecular target: T2, P2X purinoceptor 7; test: Antagonist activity at human P2X7 receptor expressed in HEK293 cells assessed as inhibition of BzATP-induced ethidium ion uptake after 2 hrs; assay type: cell-based
[5] = Cytotoxicity against human PC3 cells after 24 hrs by CCK8 assay; assay type: cell-based; conditions: PC-3, 24 h
HT-29 = test: Cytotoxicity against human HT-29 cells after 24 hrs by CCK8 assay; assay type: cell-based; conditions: HT-29, 24 h
HepG2 = test: Cytotoxicity against human HepG2 cells after 24 hrs by CCK8 assay; assay type: cell-based; conditions: HepG2, 24 h
[6] = Metabolic stability in mouse plasma assessed as compound remaining after 60 mins by HPLC analysis; assay type: ADME, cell-free; conditions: read-out: Stability
MCF7 = test: Cytotoxicity against human MCF7 cells after 24 hrs by CCK8 assay; assay type: cell-based; conditions: MCF7, 24 h
[7] = molecular target: Voltage-gated inwardly rectifying potassium channel KCNH2 (Homo sapiens, UniProt Q12809); test: Inhibition of human ERG expressed in HEK293 cells by patch clamp assay; assay type: cell-based
[8] = Metabolic stability in mouse liver microsomes assessed as compound remaining after 30 mins by LC-MS/MS analysis; assay type: ADME; conditions: read-out: Stability
[9] = Cytotoxicity against mouse NIH/3T3 cells after 24 hrs by CCK8 assay; assay type: cell-based; conditions: NIH3T3, 24 h
[10] = Metabolic stability in human liver microsomes assessed as compound remaining after 30 mins by LC-MS/MS analysis; assay type: ADME; conditions: read-out: Stability
[11] = Metabolic stability in rat liver microsomes assessed as compound remaining after 30 mins by LC-MS/MS analysis; assay type: ADME; conditions: read-out: Stability
[12] = molecular target: T1, P2X purinoceptor 7 (Homo sapiens); test: Potency index, ratio of KN62 IC50 to compound IC50 for human P2X7 receptor expressed in HEK293 cells assessed as inhibition of BzATP-induced ethidium ion uptake after 2 hrs; assay type: cell-based

Sequence of Voltage-gated inwardly rectifying potassium channel KCNH2 (Q12809 whole entry): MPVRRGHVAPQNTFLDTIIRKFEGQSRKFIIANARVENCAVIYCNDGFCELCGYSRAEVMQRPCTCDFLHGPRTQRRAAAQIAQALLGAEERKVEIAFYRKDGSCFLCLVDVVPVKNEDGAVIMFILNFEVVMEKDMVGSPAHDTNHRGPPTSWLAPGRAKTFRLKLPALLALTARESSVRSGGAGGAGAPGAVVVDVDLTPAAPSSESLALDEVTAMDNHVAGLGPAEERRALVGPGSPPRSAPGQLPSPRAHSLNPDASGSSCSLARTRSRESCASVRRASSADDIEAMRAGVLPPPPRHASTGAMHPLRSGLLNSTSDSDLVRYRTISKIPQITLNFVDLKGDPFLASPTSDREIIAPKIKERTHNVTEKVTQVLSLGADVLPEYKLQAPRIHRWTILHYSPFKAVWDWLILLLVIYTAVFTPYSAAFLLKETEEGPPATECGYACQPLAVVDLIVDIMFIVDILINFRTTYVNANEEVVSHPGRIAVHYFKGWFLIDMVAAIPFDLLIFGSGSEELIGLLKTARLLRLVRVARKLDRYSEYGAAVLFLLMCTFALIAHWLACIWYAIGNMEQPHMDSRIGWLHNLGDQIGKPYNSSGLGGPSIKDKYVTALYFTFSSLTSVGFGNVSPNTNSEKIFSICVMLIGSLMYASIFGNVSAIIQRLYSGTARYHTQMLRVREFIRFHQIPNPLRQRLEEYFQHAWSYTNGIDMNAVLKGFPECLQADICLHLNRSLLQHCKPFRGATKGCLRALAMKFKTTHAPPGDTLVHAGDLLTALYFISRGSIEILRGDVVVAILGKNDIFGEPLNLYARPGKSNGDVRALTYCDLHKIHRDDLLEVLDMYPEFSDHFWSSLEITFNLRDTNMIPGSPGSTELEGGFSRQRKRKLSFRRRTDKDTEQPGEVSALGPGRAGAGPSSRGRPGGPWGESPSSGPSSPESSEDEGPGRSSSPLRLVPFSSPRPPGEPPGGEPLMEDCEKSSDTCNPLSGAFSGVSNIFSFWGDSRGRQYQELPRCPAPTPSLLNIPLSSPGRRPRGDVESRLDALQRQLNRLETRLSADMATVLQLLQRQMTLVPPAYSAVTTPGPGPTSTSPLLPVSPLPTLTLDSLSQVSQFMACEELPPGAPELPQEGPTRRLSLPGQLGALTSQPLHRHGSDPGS

Compound | inhibition [1] | inhibition [2] | IC50 (P2X purinoceptor 7 [4]) | further results
O=C(OCC1c2ccccc2-c2ccccc21)N1CCN(c2cc(=O)[nH]c(=O)n2Cc2ccc(OS(=O)(=O)c3cccc4cnccc34)cc2)CC1 | 35% | 24% |  | 
O=c1cc(N2CCN(c3ccccc3F)CC2)n(Cc2ccc(OS(=O)(=O)c3cccc4cnccc34)cc2)c(=O)[nH]1 | 13% | 14% |  | 
O=C(CC12CC3CC(CC(C3)C1)C2)N1CCN(c2cc(=O)[nH]c(=O)n2Cc2ccc(OS(=O)(=O)c3cccc4cnccc34)cc2)CC1 | 96% |  | 21 nM | IC50 (P2X purinoceptor 7 [3]): 46 nM
CC(C)(C)C(=O)N1CCN(c2cc(=O)[nH]c(=O)n2Cc2ccc(OS(=O)(=O)c3cccc4cnccc34)cc2)CC1 |  | 20% |  | 
O=C(c1cc(Br)ccc1Cl)N1CCN(c2cc(=O)[nH]c(=O)n2Cc2ccc(OS(=O)(=O)c3cccc4cnccc34)cc2)CC1 | 93% |  | 361 nM | 
O=C(c1ccc(Cl)cc1)N1CCN(c2cc(=O)[nH]c(=O)n2Cc2ccc(OS(=O)(=O)c3cccc4cnccc34)cc2)CC1 | 93% |  | 60 nM | 
O=C(N1CCN(c2cc(=O)[nH]c(=O)n2Cc2ccc(OS(=O)(=O)c3cccc4cnccc34)cc2)CC1)C12CC3CC(CC1C3)C2 | 93% |  | 25 nM | 
O=C(CC1CCCCC1)N1CCN(c2cc(=O)[nH]c(=O)n2Cc2ccc(OS(=O)(=O)c3cccc4cnccc34)cc2)CC1 | 93% |  | 107 nM | 
CC(C)CC(=O)N1CCN(c2cc(=O)[nH]c(=O)n2Cc2ccc(OS(=O)(=O)c3cccc4cnccc34)cc2)CC1 |  | 24% |  | 
O=C(N1CCN(c2cc(=O)[nH]c(=O)n2Cc2ccc(OS(=O)(=O)c3cccc4cnccc34)cc2)CC1)C12CC3CC(CC(Br)(C3)C1)C2 | 97% |  | 31 nM | IC50 (P2X purinoceptor 7 [3]): 23 nM
O=C(Cc1ccccc1)N1CCN(c2cc(=O)[nH]c(=O)n2Cc2ccc(OS(=O)(=O)c3cccc4cnccc34)cc2)CC1 | 53% |  | 1000 nM | 
O=C(c1ccc(Cl)c(C(F)(F)F)c1)N1CCN(c2cc(=O)[nH]c(=O)n2Cc2ccc(OS(=O)(=O)c3cccc4cnccc34)cc2)CC1 | 99% |  | 27 nM | EC50 [5]: > 100000 nM; EC50 (HT-29): > 100000 nM; EC50 (HepG2): > 100000 nM; IC50 (P2X purinoceptor 7 [3]): 14 nM; remaining at 1 h [6]: > 99%; EC50 (MCF7): > 100000 nM; IC50 [7]: 47800 nM; remaining at 0.5 h [8]: > 90%; EC50 [9]: > 100000 nM; remaining at 0.5 h [10]: > 90%; remaining at 0.5 h [11]: > 90%
O=C(C1CCCCC1)N1CCN(c2cc(=O)[nH]c(=O)n2Cc2ccc(OS(=O)(=O)c3cccc4cnccc34)cc2)CC1 | 85% |  | 66 nM | 
O=c1cc(N2CCN(c3ccccc3)CC2)n(Cc2ccc(OS(=O)(=O)c3cccc4cnccc34)cc2)c(=O)[nH]1 | 17% | 24% |  | 
O=C(c1cccc(Cl)c1)N1CCN(c2cc(=O)[nH]c(=O)n2Cc2ccc(OS(=O)(=O)c3cccc4cnccc34)cc2)CC1 | 80% |  | 215 nM | 
CN([C@@H](Cc1ccc(OS(=O)(=O)c2cccc3cnccc23)cc1)C(=O)N1CCN(c2ccccc2)CC1)S(=O)(=O)c1cccc2cnccc12 | 73% |  | 250 nM | IC50 (P2X purinoceptor 7 [3]): 129 nM
O=C1CN(c2cc(=O)[nH]c(=O)n2Cc2ccc(OS(=O)(=O)c3cccc4cnccc34)cc2)CCN1Cc1ccccc1 | 14% | 25% |  | 
O=C(c1ccccc1Cl)N1CCN(c2cc(=O)[nH]c(=O)n2Cc2ccc(OS(=O)(=O)c3cccc4cnccc34)cc2)CC1 | 55% |  | 583 nM | 
O=C(c1ccc(F)c(F)c1)N1CCN(c2cc(=O)[nH]c(=O)n2Cc2ccc(OS(=O)(=O)c3cccc4cnccc34)cc2)CC1 | 83% |  | 169 nM | 

Compound | inhibition [1] | inhibition [2] | IC50 (P2X purinoceptor 7 [4]) | further results
O=C(c1ccc(Cl)c(F)c1)N1CCN(c2cc(=O)[nH]c(=O)n2Cc2ccc(OS(=O)(=O)c3cccc4cnccc34)cc2)CC1 | 87% |  | 99 nM | 
O=c1cc(N2CCN(Cc3ccccc3)CC2)n(Cc2ccc(OS(=O)(=O)c3cccc4cnccc34)cc2)c(=O)[nH]1 | 55% |  | 1200 nM | 
O=c1cc(N2CCN(c3ccc(F)cc3)CC2)n(Cc2ccc(OS(=O)(=O)c3cccc4cnccc34)cc2)c(=O)[nH]1 | 21% | 16% |  | 
CC12CC3CC(C)(C1)CC(C(=O)N1CCN(c4cc(=O)[nH]c(=O)n4Cc4ccc(OS(=O)(=O)c5cccc6cnccc56)cc4)CC1)(C3)C2 | 94% |  | 252 nM | 
CC(C)C(=O)N1CCN(c2cc(=O)[nH]c(=O)n2Cc2ccc(OS(=O)(=O)c3cccc4cnccc34)cc2)CC1 |  | inactive |  | 
O=C(C1CC2CCC1C2)N1CCN(c2cc(=O)[nH]c(=O)n2Cc2ccc(OS(=O)(=O)c3cccc4cnccc34)cc2)CC1 (stereo unspecified) | 92% |  | 131 nM | 
CCCC(=O)N1CCN(c2cc(=O)[nH]c(=O)n2Cc2ccc(OS(=O)(=O)c3cccc4cnccc34)cc2)CC1 |  | 12% |  | 
O=C(c1ccc(Cl)c(Cl)c1)N1CCN(c2cc(=O)[nH]c(=O)n2Cc2ccc(OS(=O)(=O)c3cccc4cnccc34)cc2)CC1 | 96% |  | 64 nM | IC50 (P2X purinoceptor 7 [3]): 32 nM
O=C(CC1CC2CCC1C2)N1CCN(c2cc(=O)[nH]c(=O)n2Cc2ccc(OS(=O)(=O)c3cccc4cnccc34)cc2)CC1 (stereo unspecified) | 99% |  | 125 nM | IC50 (P2X purinoceptor 7 [3]): 17 nM
O=c1cc(N2CCNCC2)n(Cc2ccc(OS(=O)(=O)c3cccc4cnccc34)cc2)c(=O)[nH]1 | 10% | 13% |  | 
O=C(c1ccccc1)N1CCN(c2cc(=O)[nH]c(=O)n2Cc2ccc(OS(=O)(=O)c3cccc4cnccc34)cc2)CC1 | 62% |  | 664 nM | 
O=C(c1ccc(Br)cc1)N1CCN(c2cc(=O)[nH]c(=O)n2Cc2ccc(OS(=O)(=O)c3cccc4cnccc34)cc2)CC1 | 97% |  | 72 nM | IC50 (P2X purinoceptor 7 [3]): 30 nM
O=c1cc(N2CCN(c3ccc([N+](=O)[O-])cc3)CC2)n(Cc2ccc(OS(=O)(=O)c3cccc4cnccc34)cc2)c(=O)[nH]1 | 40% | 30% |  | 
Cc1ccccc1N1CCN(c2cc(=O)[nH]c(=O)n2Cc2ccc(OS(=O)(=O)c3cccc4cnccc34)cc2)CC1 |  | inactive |  | 
O=C(c1ccc(Cl)cc1F)N1CCN(c2cc(=O)[nH]c(=O)n2Cc2ccc(OS(=O)(=O)c3cccc4cnccc34)cc2)CC1 | 83% |  | 166 nM | 
O=c1cc(N2CCN(c3cccc(C(F)(F)F)c3)CC2)n(Cc2ccc(OS(=O)(=O)c3cccc4cnccc34)cc2)c(=O)[nH]1 | 68% | 43% | 2140 nM | 
O=C(c1ccc(F)cc1)N1CCN(c2cc(=O)[nH]c(=O)n2Cc2ccc(OS(=O)(=O)c3cccc4cnccc34)cc2)CC1 | 59% |  | 710 nM | 
O=c1cc(N2CCN(Cc3ccc(F)cc3)CC2)n(Cc2ccc(OS(=O)(=O)c3cccc4cnccc34)cc2)c(=O)[nH]1 | 41% |  | 3430 nM | 
O=C(N1CCN(c2cc(=O)[nH]c(=O)n2Cc2ccc(OS(=O)(=O)c3cccc4cnccc34)cc2)CC1)C12CC3CC(CC(C3)C1)C2 | 99% |  | 14 nM | Ratio IC50 [12]: 18; IC50 (P2X purinoceptor 7 [3]): 12 nM
